A short description of series [1]: refractive index (Na D-line) (dimensionless). The conditions noted are these: 303.1 K; 101.33 kPa; Liquid; Standard Abbe refractometry.

± gives the expanded uncertainty stated by the source.

For orientation: refractive index means a measure of how strongly the sample bends light. By mass density is commonly meant the mass of a sample divided by its volume. As a reminder, the viscosity is the internal friction of a fluid under shear. The surface tension liquid-gas is the work needed to enlarge the surface of a liquid by unit area.

For the compound `CN(CCO)CCO` [N-methyldiethanolamine], the refractive index in series [1] stood at 1.46008 ± 0.00051. Besides, the mass density (298.1 K, 101.33 kPa, Liquid, Vibrating tube method) came to 1038.11 ± 0.92 kg/m3. Moreover, where the note is “298.15 K, 101.33 kPa, Liquid, Capillary tube (Ostwald / Ubbelohde) method”, the viscosity is reported as 77.09 ± 1.8 mPa·s. The surface tension liquid-gas (303.15 K, Pendant drop shape) is listed as 38.26 ± 0.53 mN/m.

(Values after the NIST ThermoML archive (doi:10.1021/je2008523).)
